{"source": "patent US11066378B2", "about": "“Caffeic acid derivatives for anti-angiogenesis” (Taipei Medical University, priority 2015, dated 2021)", "key": {"HUVECs [1]": {"system": "HUVECs", "assay": "Matrigel cell invasion assay", "type": "cell-based, human", "conditions": "0.5 μM, 16 h, FIG. 3B", "procedure": "(§1) For evaluating cell migration, the HUVECs (1×10^5 cells/well) suspended within serum-free culture medium were seeded on inner surface of the upper chamber (ThinCerts™ Cell Culture Inserts with 8 μm pore size; #662638; Greiner Bio-One Inc., Monroe, N.C., USA) placed in the lower chamber (wells of a 24-well plate). For examining the cell invasion, the HUVECs were pre-mixed with equal volume of thawed Matrigel and rapidly seeded on the upper chamber. After 2 h for cell attachment, K20E at different concentrations (0.5, 1, and 2 μM) were added in the upper and the lower chambers, while 5% FBS as a chemoattractant was added in the lower chamber to facilitate cell migration or invasion. After 16 h incubation, the culture medium (or Matrigel) was removed clearly from inside the upper chamber, and the migrated or invasion cells attached on the outer surface of the upper chamber were fixed with 10% formaldehyde for 10 min at RT. The fixed cells were subsequently counterstained with hematoxylin. Relative cell number of each groups was counted from five random regions by light microscopy using a 40-fold magnification. The cell number of the control group (treated with 5% FBS alone) was defined as 100%."}, "HUVECs [2]": {"system": "HUVECs", "assay": "Transwell cell migration assay", "type": "cell-based, human", "conditions": "0.5 μM, 16 h, FIG. 3A", "procedure": "as §1"}}}
{"smiles": "COC(=O)/C=C/c1cc(OC(C)=O)c2c(c1)[C@H](C(=O)OC)[C@@H](c1ccc(OC(C)=O)c(OC(C)=O)c1)O2", "note": "[K20E]", "values": [{"measurement": "5% FBS-induced cell invasion of the HUVECs", "setting": "HUVECs [1]", "result": "largely suppressed"}, {"measurement": "5% FBS-induced migration of the HUVECs", "setting": "HUVECs [2]", "result": "markedly abolished"}]}
